For 27 molecules, EC50 and Efficacy results are on record in ChEMBL document CHEMBL1141709, “Optimization of small molecule agonists of the thrombopoietin (Tpo) receptor derived from a benzo[a]carbazole hit scaffold” (Bioorg Med Chem Lett, 2008).

In one test the target is T1, Thrombopoietin receptor (Homo sapiens, UniProt P40238).
T1 sequence (P40238 whole entry): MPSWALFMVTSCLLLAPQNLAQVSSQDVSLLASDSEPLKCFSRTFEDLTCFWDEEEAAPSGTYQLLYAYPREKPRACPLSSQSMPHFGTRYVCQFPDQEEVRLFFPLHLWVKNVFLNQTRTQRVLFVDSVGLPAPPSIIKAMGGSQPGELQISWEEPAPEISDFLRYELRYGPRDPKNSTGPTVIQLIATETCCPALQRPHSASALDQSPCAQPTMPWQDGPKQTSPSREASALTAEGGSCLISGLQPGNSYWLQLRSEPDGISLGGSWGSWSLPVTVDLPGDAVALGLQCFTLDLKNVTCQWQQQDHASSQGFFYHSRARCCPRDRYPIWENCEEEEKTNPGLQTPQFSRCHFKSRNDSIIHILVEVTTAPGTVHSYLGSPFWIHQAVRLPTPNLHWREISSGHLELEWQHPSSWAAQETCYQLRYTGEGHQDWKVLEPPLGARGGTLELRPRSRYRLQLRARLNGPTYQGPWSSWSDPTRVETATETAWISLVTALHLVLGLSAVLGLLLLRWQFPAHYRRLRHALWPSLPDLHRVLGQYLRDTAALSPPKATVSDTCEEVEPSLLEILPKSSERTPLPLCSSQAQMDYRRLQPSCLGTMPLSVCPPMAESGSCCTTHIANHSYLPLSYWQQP
Briefly: Agonist activity at human thrombopoietin receptor expressed in mouse Ba/F3 cells by kinase activation based reporter gene assay. In kind it is functional, cell-based, BaF3.

Test [1] concerns the target T2, Thrombopoietin receptor (Homo sapiens) (UniProt P40238).
T2 sequence (whole entry): T1 sequence (P40238 whole entry)
The experiment in a line: Agonist activity at human thrombopoietin receptor expressed in mouse Ba/F3 cells by kinase activation based reporter gene assay relative to 30 ng/mL thrombopoietin. The class given is functional, cell-based. The note with it: BaF3.

Test [2] concerns the target T2, Thrombopoietin receptor (Homo sapiens). The experiment in a line: Agonist activity at human thrombopoietin receptor expressed in mouse Ba/F3 cells in presence of 1 mM Zinc by kinase activation based reporter gene assay. In kind it is functional, cell-based. As to conditions: BaF3. In general terms: A reporter such as luciferase makes a cellular process visible.
The target is the same in test [3]. Briefly: Agonist activity at human thrombopoietin receptor expressed in mouse Ba/F3 cells in presence of 1 mM Zinc by kinase activation based reporter gene assay relative to 30 ng/mL thrombopoietin. In kind it is functional, cell-based. The note with it: BaF3.
Test [4] in a line: Thrombopoietic activity in human megakaryocytes assessed as induction of cell differentiation by CFU-mega assay. The class given is functional, cell-based.

Each structure is given as a SMILES string.

For orientation: EC50 means the concentration giving half of the maximal effect. In turn, `CC1=NN(c2ccc(C)c(C)c2)C(=O)/C1=N\Nc1cccc(-c2cccc(C(=O)O)c2)c1O` [ELTROMBOPAG] had a concentration giving a half-maximal response (EC50) on Thrombopoietin receptor of 38 nM. Also, the Efficacy in test [1] was found to be 127%.

Turning to `CCCCc1ccc(-c2ccc3nc(-c4ccc(C(=O)O)cc4)[nH]c3c2)cc1`, on Thrombopoietin receptor, it took 1260 nM to reach a half-maximal effect (EC50). For the same molecule, in test [1], the Efficacy is 83%.

For `Cc1cc(-c2ccc3c4c([nH]c3c2F)-c2ccc(C(N)=O)cc2C4)ccc1F`, the midpoint of the response at Thrombopoietin receptor, the EC50, lay at 277 nM. Besides, the Efficacy in test [1] is 105%.

In the case of `CCCCc1ccc(-c2ccc3c4c([nH]c3c2F)-c2ccc(NC(N)=O)cc2C4)cc1`, the EC50 in test [2] came out at 124 nM. The Efficacy in test [3] amounted to 128%.

On to `CCCCc1ccc(-c2ccc3c4c([nH]c3c2)-c2ccc(C(=O)O)cc2C4)cc1`, for which, on Thrombopoietin receptor, the EC50 came to 160 nM. In addition, the Efficacy in test [1] turned out to be 91%.

The molecule `CCCCc1ccc(-c2ccc3cc(-c4ccc(C(=O)O)c(O)c4)[nH]c3c2F)cc1` showed an EC50 at Thrombopoietin receptor of 51 nM. Also, the Efficacy in test [1] was found to be 141%.

Consider `CCCCc1ccc(-c2ccc3c4c([nH]c3c2F)-c2ccc(C(=O)O)cc2C4)cc1`, for which the EC50 at Thrombopoietin receptor was found to be 37 nM. Also, in test [1], the Efficacy turned out to be 151%.

At Thrombopoietin receptor, `CCCCc1ccc(-c2ccc3c4c([nH]c3c2)-c2ccc(C(N)=O)cc2C4)cc1` showed an EC50 of 86 nM. Further, in test [1], the Efficacy came out at 118%.

As for `CCCCc1ccc(-c2ccc3c4c([nH]c3c2F)-c2ccc(NC(C)=O)cc2C4)cc1`, the results for the EC50 (on Thrombopoietin receptor; in test [4]) were 25 nM and 300 nM, respectively. Further, the Efficacy in test [1] came to 117%.

Turning to `CCCCc1ccc(-c2ccc3c4c([nH]c3c2)-c2ccc(C(=O)O)cc2S(=O)(=O)C4)cc1`, on Thrombopoietin receptor, the EC50 was found to be 449 nM. The Efficacy in test [1] was 115%.

The molecule `CCCCc1ccc(-c2ccc3c4c([nH]c3c2F)-c2ccc(NC(=O)C(=O)O)cc2C4)cc1` displayed an EC50 at Thrombopoietin receptor of 21 nM. Further, the Efficacy in test [1] was 110%.

In turn, `CCCCc1ccc(-c2ccc3c4c([nH]c3c2)-c2ccc(C(=O)O)cc2CC4)cc1` displayed an EC50 on Thrombopoietin receptor of 111 nM.

`Cc1cc(-c2ccc3c4c([nH]c3c2F)-c2ccc(C(N)=O)cc2OC4)ccc1F` displayed an EC50 on Thrombopoietin receptor of 1430 nM. The Efficacy in test [1] was 83%.

For `Cc1cc(-c2ccc3c4c([nH]c3c2F)-c2ccc(C(N)=O)cc2COC4=O)ccc1F`, at Thrombopoietin receptor, the EC50 is above 30000 nM. Moreover, in test [1], the Efficacy amounted to 0%.

As to `CCCCc1ccc(-c2ccc3c4c([nH]c3c2F)-c2ccc(NC(=O)CO)cc2C4)cc1`, the EC50 in test [2] was 87 nM. In test [3], the Efficacy amounted to 98%.

Turning to `CCCCc1ccc(-c2ccc3nc(-c4ccc(C(=O)O)c(O)c4)[nH]c3c2)cc1`, on Thrombopoietin receptor, the EC50 was found to be 179 nM. In test [1], the Efficacy is 121%.

As to `CCCCc1ccc(-c2ccc3c(C(C)C)c(-c4ccc(C(=O)O)c(O)c4)[nH]c3c2F)cc1`, at Thrombopoietin receptor, the EC50 was above 1000 nM. In addition, the Efficacy in test [1] was found to be 70%.

With `CCCCc1ccc(-c2ccc3c4c([nH]c3c2F)-c2cc(NC(C)=O)c(C(=O)O)cc2C4)cc1`, the concentration for a half-maximal effect (EC50) on Thrombopoietin receptor is 376 nM. Also, the Efficacy in test [1] was 90%.

At Thrombopoietin receptor, `CCCCc1ccc(-c2ccc3cc(-c4ccc(C(=O)O)cc4)[nH]c3c2F)cc1` showed an EC50 of 117 nM. In addition, the Efficacy in test [1] was found to be 112%.

Regarding `CCCCc1ccc(-c2ccc3c4c([nH]c3c2F)-c2cc(N)c(C(=O)O)cc2C4)cc1`, the EC50 in test [2] was 341 nM. For the same molecule, the Efficacy in test [3] was determined as 70%.

`CCCCc1ccc(-c2ccc3c4c([nH]c3c2F)-c2ccc(C(=O)O)cc2C4(C)C)cc1` returned an EC50 at Thrombopoietin receptor of 111 nM. For the same molecule, the Efficacy in test [1] was 118%.

`CCCCc1ccc(-c2ccc3c(CC)c(-c4ccc(C(=O)O)c(O)c4)[nH]c3c2F)cc1`: the response at Thrombopoietin receptor was half-maximal at 228 nM (EC50). The Efficacy in test [1] turned out to be 97%.

On to `CCCCc1ccc(-c2ccc3c(C)c(-c4ccc(C(=O)O)c(O)c4)[nH]c3c2F)cc1`, for which, at Thrombopoietin receptor, the concentration for a half-maximal effect (EC50) is 116 nM. The Efficacy in test [1] worked out at 119%.

In the case of `CCCCc1ccc(-c2ccc3c4c([nH]c3c2)-c2ccc(C(=O)O)cc2CCC4)cc1`, in test [2], the EC50 was 332 nM. Besides, in test [3], the Efficacy turned out to be 71%.

Turning to `CCCCc1ccc(-c2ccc3c4c([nH]c3c2F)-c2ccc(NS(C)(=O)=O)cc2C4)cc1`, in test [2], the EC50 came out at 166 nM. The Efficacy in test [3] came to 95%.

With `Cc1cc(-c2ccc3c4c([nH]c3c2F)-c2ccc(C(=O)O)cc2C4)ccc1F`, the response on Thrombopoietin receptor was half-maximal at 26 nM (EC50). For the same molecule, the Efficacy in test [1] was found to be 144%.

At Thrombopoietin receptor, `CCCCc1ccc(-c2ccc3cc(-c4ccc(C(N)=O)cc4)[nH]c3c2F)cc1` registered an EC50 of 160 nM. For the same molecule, the Efficacy in test [1] was determined as 81%.
